This is an account of results in patent US5104980A, “Chromogenic dibenzoxazepinone and dibenzothiazepinone enzyme substrates” (Miles Inc., priority 1989, dated 1992).

The test system of this experiment is β-galactosidase. The experiment in a line: cleavage of the chromogenic substrate by β-galactosidase in 50 mM phosphate buffer. Particulars: 50 mM phosphate buffer at pH 7.4 containing 5 mM MgCl2; in the presence of β-galactosidase. The class given is biochemical. As to the method:
When dissolved in 50 mM phosphate buffer at pH 7.4 containing 5 mM magnesium chloride (MgCl2) compound (23)+(24) (mixture) had λmax of 454 nm (^ε =22,000) and 344 nm (^ε =14,000).

In general, Km refers to the substrate concentration at which the rate is half of its maximum.

Turning to “8-β-D-Galactopyranosyloxy-11-methyl-11H-dibenz[b,e] [1,4]oxazepin-1-one (23) and 2-β-D-galactopyranosyloxy-11-methyl-11H-dibenz[b,e][1,4]oxazepin-8-one (24) [(23)+(24)]”, the Km was 75 µM and the “rate (Kcat) of cleavage of the substrate to (20)” value was 1.32×10^4 mol. min^-1 /mol. active site.
